13 compounds from PubChem BioAssay (NCI) can be followed below.

Holding throughout (experiment): inhibition of tumour cell growth, NCI panel, 48 h
Test [1] deals with SNB-75 CNS.
Test [2] has as its system CCRF-CEM leukemia.
Test [3] concerns UACC-257 melanoma.
Test [4] deals with A549 NSCLC.
The test system of test [5] is SW-620 colon.
Test [6] concerns SK-MEL-28 melanoma.
The test system of test [7] is NCI-H226 lung.
Test [8] deals with LOX IMVI melanoma.
The test system of test [9] is MCF7 breast.
The test system of test [10] is NCI-H23 lung.
The subject of test [11] is RXF 393 renal.

Each structure is given as a SMILES string.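 Where inhibition never reached the appropriate level, the endpoint shown equals the highest concentration tested. Otherwise, values were interpolated linearly from a five-concentration, 48-hour dose response in 96-well plates. At the TGI there is no net growth.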

As to `Nc1ccc(N=Nc2ccc(/C=C/c3ccc(N=Nc4ccc(N)c5ccc(S(=O)(=O)O)cc45)cc3S(=O)(=O)O)c(S(=O)(=O)O)c2)c2cc(S(=O)(=O)O)ccc12`, the TGI in test [1], in test [2], in test [3], in [4], in test [5] and in test [6] was greater than 100 µM each time. For the same compound, the TGI in [7], in [8], in test [9], in test [10] and in [11] was greater than 100 µM in each case.

With `O=C(Nc1ccccc1)N1CCNC1=S`, the TGI in [1], in [2], in test [4], in test [5], in test [6] and in [7] was greater than 100 µM throughout. Moreover, the TGI in test [8] is greater than 100 µM; in test [9], greater than 100 µM; in [10], greater than 100 µM; in test [11] it was 98.2 µM.

For `O=C(CNC(=O)OCc1ccccc1)NCCCCC(NC(=O)OCc1ccccc1)C(=O)O` (stereo not given), the TGI in [1], in test [2], in [3], in test [4], in [5] and in test [6] was greater than 100 µM each time. Further, the TGI in test [7], in [8], in [9], in [10] and in test [11] was greater than 100 µM throughout.

`N#Cc1c(-c2ccccc2)c(C#N)c(=O)n(NS(=O)(=O)c2ccccc2)c1O`: the TGI in test [1], in test [2], in test [3], in test [4], in test [5] and in test [6] was greater than 100 µM throughout. For the same compound, the TGI in [7], in test [8], in test [9] and in test [11] was greater than 100 µM throughout.

As for `CCOc1ccc(C2c3[nH]c4ccccc4c3CCN2C(=O)c2cccs2)cc1` (stereo not given), the TGI in test [1], in test [2], in test [3], in [4], in test [5] and in test [6] was greater than 100 µM each time. Further, the TGI in [7] was 43.4 µM; in test [8] it was greater than 100 µM; in test [9], greater than 100 µM; in test [10], greater than 100 µM; in [11], greater than 100 µM.

For `CSc1nc(=S)[nH]c2n[nH]c(C)c12`, the TGI in test [1], in test [2], in test [3], in [4], in test [5] and in test [6] was greater than 100 µM each time. The TGI in test [7], in test [8], in test [9], in test [10] and in [11] was greater than 100 µM in each case.

As to `CC[C@@]1(O)C(=O)OCc2c1c(Cl)c1n(c2=O)Cc2cc3ccccc3nc2-1`, the TGI in test [1] was 12.7 µM; in [2] it was greater than 29 µM; in test [3], 26.7 µM; in [4], greater than 63.2 µM; in [5], greater than 100 µM; in [6], greater than 100 µM. The TGI is 31.2 µM in test [7]; 4.01 µM in test [8]; greater than 34.7 µM in test [9]; 6.24 µM in test [10]; 15.1 µM in [11].

Regarding `O=c1nc2n(CCO)c(-c3ccccc3)c(-c3ccccc3)nc-2c(=O)[nH]1`, the TGI in test [1], in test [2], in test [3], in test [4], in test [5] and in [6] was greater than 100 µM throughout. Also, the TGI in [7], in test [8], in test [9], in [10] and in [11] was greater than 100 µM throughout.

In the case of `CN1CC=C(OP(=O)(NCc2ccccc2)N(CCCl)CCCl)CC1` (stereo not given), the TGI in test [1], in test [2], in test [3], in [5], in test [6] and in test [7] was greater than 100 µM in each case. The TGI in [8], in test [9], in [10] and in test [11] was greater than 100 µM in each case.

As for `CCOC(=O)CCc1c(C(=O)OCC)[nH]c(/C=C2/NC(=O)C(C)=C2CC)c1C`, the TGI is 42.7 µM in test [1]; 25.3 µM in test [3]; greater than 100 µM in test [4]; greater than 100 µM in test [5]; 30.2 µM in test [6]; 48.2 µM in [7]. For the same compound, the TGI in [8] was found to be 21 µM; in test [9], 17.7 µM; in test [10], 11.7 µM; in test [11], 30.3 µM.

Consider `CC1CN=C(NCc2ccccc2)S1` (stereo not given), for which the TGI in test [1], in [2], in [3], in [6], in test [7] and in test [8] was greater than 100 µM throughout. Further, the TGI in [9], in test [10] and in test [11] was greater than 100 µM throughout.

Take `N#C/C(=C\c1ccc(Cl)cc1)c1nc2ccccc2c(=O)[nH]1`: the TGI was 61.7 µM in test [1]; greater than 100 µM in [2]; greater than 100 µM in [3]; greater than 100 µM in test [4]; greater than 100 µM in [5]; greater than 100 µM in test [6]. The TGI in test [7], in test [8], in test [9] and in test [11] was greater than 100 µM in each case.

Regarding `O=c1cc(-c2ccc(O)c(O)c2)oc2cc(OC3OC(CO)C(O)C(O)C3O)cc(O)c12` (stereo not given), the TGI in test [1], in test [3], in test [4], in test [5], in test [6] and in [7] was greater than 100 µM each time. The TGI in test [8], in [9], in test [10] and in test [11] was greater than 100 µM each time.
